In patent KR20180060184A, “Ccsp-2와 특이적으로 결합하는 펩타이드 및 이의 용도” (재단법인 아산사회복지재단, priority 2016, dated 2018):
pKd: −log10 of the molar value. Residues, ends and D or L forms follow the SMILES beside them.

target: T1, CCSP-2 (Homo sapiens, UniProt Q5GFL6); test: Phage display biopanning on purified CCSP-2 and sequencing of selected clones; format: binding; settings: after 4 rounds of panning on CCSP-2
T1 construct: His tag; made in house; host or cells: CCSP-2-overexpressing HeLa cell line (provided by Case Western Reserve University); the secreted protein was captured from the conditioned medium on Ni-NTA agarose
T1 sequence (Q5GFL6 24-755): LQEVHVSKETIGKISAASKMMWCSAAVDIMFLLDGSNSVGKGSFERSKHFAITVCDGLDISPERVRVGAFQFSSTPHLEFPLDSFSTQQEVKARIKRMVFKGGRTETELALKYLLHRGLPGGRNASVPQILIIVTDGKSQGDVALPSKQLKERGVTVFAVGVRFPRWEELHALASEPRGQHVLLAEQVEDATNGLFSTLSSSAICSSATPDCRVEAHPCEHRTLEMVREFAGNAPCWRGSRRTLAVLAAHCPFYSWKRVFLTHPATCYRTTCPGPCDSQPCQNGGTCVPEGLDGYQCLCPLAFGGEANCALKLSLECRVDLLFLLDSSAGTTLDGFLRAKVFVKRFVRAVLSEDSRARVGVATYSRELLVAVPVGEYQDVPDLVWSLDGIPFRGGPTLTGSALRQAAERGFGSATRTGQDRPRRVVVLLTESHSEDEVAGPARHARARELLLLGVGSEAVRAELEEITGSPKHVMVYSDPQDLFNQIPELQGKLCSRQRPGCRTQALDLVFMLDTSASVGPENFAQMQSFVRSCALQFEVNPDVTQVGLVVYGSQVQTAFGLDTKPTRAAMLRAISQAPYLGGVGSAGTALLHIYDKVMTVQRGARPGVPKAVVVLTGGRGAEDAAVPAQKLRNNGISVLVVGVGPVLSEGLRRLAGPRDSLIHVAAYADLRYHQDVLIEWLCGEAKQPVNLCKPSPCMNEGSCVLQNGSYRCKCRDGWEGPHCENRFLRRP

Row | 빈도 (frequency among the 56 sequences, percent) [%] | Molecule
1 | 16.1 | NTGSPYE [MSJ1]
2 | 12.5 | WWNPLRP [MSJ10]

target: T2, CCSP-2 단백질 (Homo sapiens, UniProt Q5GFL6); test: Fluorescence correlation spectroscopy (FCS), dissociation constant with CCSP-2 protein; format: binding; settings: (peptide)-(GGGSK)-FITC-NH2 conjugate; CCSP-2 0-300 uM; Fig. 5; read-out: 해리상수 (Dissociation constant, Kd)
T2 sequence (Q5GFL6 24-755): T1 sequence (Q5GFL6 24-755)

Row | pKd | Molecule
3 | 4.21 | CC(C)C[C@H](NC(=O)[C@H](CCCCN)NC(=O)[C@@H](N)CC(C)C)C(=O)NCC(=O)N[C@@H](CCC(=O)O)C(=O)N[C@@H](CCCCN)C(=O)N[C@@H](Cc1c[nH]c2ccccc12)C(=O)O [MSJ6, LKLGEKW] (H-LKLGEKW-OH)
4 | 4.21 | N=C(N)NCCC[C@H](NC(=O)[C@H](CC(N)=O)NC(=O)[C@H](Cc1ccccc1)NC(=O)[C@H](CO)NC(=O)[C@H](CO)NC(=O)[C@H](Cc1ccc(O)cc1)NC(=O)CN)C(=O)O [MSJ11, GYSSFNR] (H-GYSSFNR-OH)

Second part, the molecule before the results:

Row | Molecule | pKd
5 | N=C(N)NCCC[C@H](NC(=O)[C@H](Cc1ccccc1)NC(=O)[C@H](CCCCN)NC(=O)[C@H](CO)NC(=O)[C@H](Cc1ccccc1)NC(=O)[C@@H](N)CCC(=O)O)C(=O)N[C@@H](CO)C(=O)O [MSJ2, EFSKFRS] (H-EFSKFRS-OH) | 4.26
6 | CSCC[C@H](N)C(=O)N[C@@H](CO)C(=O)N[C@H](C(=O)NCC(=O)N[C@@H](CC(C)C)C(=O)N[C@@H](CO)C(=O)N[C@@H](CO)C(=O)O)[C@@H](C)O [MSJ3, MSTGLSS] (H-MSTGLSS-OH) | 4.60
